Test results reported in US20250268913A1, “PKC INHIBITORS FOR THE TREATMENT OF SEPTIC CHOLESTASIS WITH CTM TARGETING” (SMARTDYELIVERY GMBH, priority 2018, published 2025).

Assays:
PCI model, C57/BL6 mice = assay: Survival rate in cholestasis model under septic conditions, peritoneal contamination and infection (PCI); format: in vivo; conditions: free drug alone, 4 mg/kg body weight
Description: In order to mimic the septic cholestasis, a systemic inflammation was induced using the well-established peritoneal contamination and infection (PCI) model. In this model, a human feces suspension is applied intraperitoneally (i.p.) and rapidly triggers sepsis with liver dysfunction. For each batch of human stool, the dose is titrated carefully for a survival between 0% and 20% within two weeks.
To find the adequate dose of stool, different doses were tested. 6 h after i.p. application of the stool, 8-12 weeks old C57/BL6 mice or FVB/N mice were treated with the nanoparticles or the free drug respectively.
A systemic infection/sepsis with organ failure was induced in male C57/BL6 mice by using the PCI model. For this purpose, a human fecal suspension (2.5 μl/g BW for stool batch1 and 6 μl/g for stool batch 2, respectively) was injected intraperitoneally (without anesthesia) with weight adaptation, thus triggering peritonitis with subsequent systemic infection. […] The animals were closely monitored and scored every 6 hours for signs of infection in order to timely. […] With the evaluated dose of 6 μl/g BW stool and additional antibiotic therapy, all mice died within three days, as shown in the Kaplan-Meier-Schätzer diagram (FIG. 14, right panel). […]

[1] = compared to placebo; cited from earlier work
[2] = cited from earlier work

O=C1NC(=O)/C(=C\c2ccc3nccnc3c2)S1 [AS605240]
activity of free drug (survival) (PCI model, C57/BL6 mice): active

CN(C)CCCn1cc(C2=C(c3c[nH]c4ccccc34)C(=O)NC2=O)c2ccccc21 [BIM-1]
activity of free drug (survival) (PCI model, C57/BL6 mice): active

CC[C@H](Nc1ncnc2[nH]cnc12)c1nc2cccc(F)c2c(=O)n1-c1ccccc1 [idelalisib]
risk of developing sepsis as adverse effect [1]: five-fold higher

CO[C@@H]1[C@H](N(C)C(=O)c2ccccc2)C[C@H]2O[C@]1(C)n1c3ccccc3c3c4c(c5c6ccccc6n2c5c31)C(=O)NC4 [midostaurin]
Serious adverse reactions due to infections and gastrointestinal disorders ([2]; most common serious adverse reactions): ≥ 20%
on-treatment deaths from disease progression attributed to infection ([2]; number of deaths): 4
adverse reaction sepsis occurring in patients ([2]; page 8 of the professional information): ≥ 9 % of patients
Grade ≥3 adverse reactions reported (fatigue, sepsis, gastrointestinal hemorrhage, pneumonia, diarrhea, febrile neutropenia) ([2]; patients): ≥ 5%
Serious adverse reactions ([2]; patients): 68 % of patients
Treatment discontinuation due to adverse reaction ([2]; patients): 21 % of patients
